The NIST ThermoML archive (doi:10.1016/j.jct.2014.07.026)

Experiment: mn = molality of the nth substance listed, in mol/kg
Details: 100 kPa, Liquid; for mass density: Vibrating tube method; for speed of sound: Frequency=2 MHz, Linear variable-path acoustic interferometer

CC(C)C[C@H](N)C(=O)[O-].CCCCn1cc[n+](C)c1 [1-butyl-3-methylimidazolium L-leucinate] + O
Details | mass density [kg/m3] | speed of sound [m/s]
293.15 K, m1 = 0.03697 | 999.215 | –
293.15 K, m1 = 0.05641 | 999.729 | –
293.15 K, m1 = 0.07287 | 1000.17 | –
293.15 K, m1 = 0.09146 | 1000.67 | –
293.15 K, m1 = 0.1132 | 1001.23 | –
293.15 K, m1 = 0.1544 | 1002.32 | –
293.15 K, m1 = 0.1911 | 1003.25 | –
293.15 K, m1 = 0.2335 | 1004.32 | –
293.15 K, m1 = 0.2827 | 1005.52 | –
293.15 K, m1 = 0.3424 | 1007.01 | –
293.15 K, m1 = 0.3957 | 1008.25 | –
293.15 K, m1 = 0.4527 | 1009.6 | –
293.15 K, m1 = 0.5127 | 1010.96 | –
298.15 K, m1 = 0.03697 | 998.03 | –
298.15 K, m1 = 0.04773 | – | 1507.7
298.15 K, m1 = 0.05641 | 998.525 | –
298.15 K, m1 = 0.07287 | 998.954 | –
298.15 K, m1 = 0.09146 | 999.435 | –
298.15 K, m1 = 0.1038 | – | 1519.1
298.15 K, m1 = 0.1132 | 999.978 | –
298.15 K, m1 = 0.1495 | – | 1528.5
298.15 K, m1 = 0.1544 | 1001.01 | –
298.15 K, m1 = 0.1911 | 1001.9 | –
298.15 K, m1 = 0.1994 | – | 1538.3
298.15 K, m1 = 0.2335 | 1002.93 | –
298.15 K, m1 = 0.2447 | – | 1547.3
298.15 K, m1 = 0.2827 | 1004.13 | –
298.15 K, m1 = 0.2957 | – | 1557.1
298.15 K, m1 = 0.3424 | 1005.51 | –
298.15 K, m1 = 0.3491 | – | 1567.5
298.15 K, m1 = 0.3957 | 1006.7 | –
298.15 K, m1 = 0.4035 | – | 1577.8
298.15 K, m1 = 0.4527 | 1008.01 | –
298.15 K, m1 = 0.4605 | – | 1588.7
298.15 K, m1 = 0.5127 | 1009.37 | –
298.15 K, m1 = 0.5164 | – | 1599.4
303.15 K, m1 = 0.03697 | 996.605 | –
303.15 K, m1 = 0.05641 | 997.088 | –
303.15 K, m1 = 0.07287 | 997.496 | –
303.15 K, m1 = 0.09146 | 997.966 | –
303.15 K, m1 = 0.1132 | 998.492 | –
303.15 K, m1 = 0.1544 | 999.496 | –
303.15 K, m1 = 0.1911 | 1000.35 | –
303.15 K, m1 = 0.2335 | 1001.35 | –
303.15 K, m1 = 0.2827 | 1002.52 | –
303.15 K, m1 = 0.3424 | 1003.84 | –
303.15 K, m1 = 0.3957 | 1005.02 | –
303.15 K, m1 = 0.4527 | 1006.25 | –
303.15 K, m1 = 0.5127 | 1007.54 | –
308.15 K, m1 = 0.03562 | 994.921 | –
308.15 K, m1 = 0.05661 | 995.428 | –
308.15 K, m1 = 0.07558 | 995.879 | –
308.15 K, m1 = 0.0961 | 996.37 | –
308.15 K, m1 = 0.114 | 996.791 | –
308.15 K, m1 = 0.1577 | 997.799 | –
308.15 K, m1 = 0.1946 | 998.637 | –
308.15 K, m1 = 0.2469 | 999.798 | –
308.15 K, m1 = 0.2813 | 1000.57 | –
308.15 K, m1 = 0.345 | 1001.95 | –
308.15 K, m1 = 0.3992 | 1003.13 | –
308.15 K, m1 = 0.4555 | 1004.31 | –
308.15 K, m1 = 0.5127 | 1005.43 | –
313.15 K, m1 = 0.03562 | 993.087 | –
313.15 K, m1 = 0.05661 | 993.589 | –
313.15 K, m1 = 0.07558 | 994.031 | –
313.15 K, m1 = 0.0961 | 994.501 | –
313.15 K, m1 = 0.114 | 994.919 | –
313.15 K, m1 = 0.1577 | 995.899 | –
313.15 K, m1 = 0.1946 | 996.701 | –
313.15 K, m1 = 0.2469 | 997.848 | –
313.15 K, m1 = 0.2813 | 998.573 | –
313.15 K, m1 = 0.345 | 999.913 | –
313.15 K, m1 = 0.3992 | 1001.03 | –
313.15 K, m1 = 0.4555 | 1002.11 | –
313.15 K, m1 = 0.5127 | 1003.22 | –
